# Test results published in patent US11013232B2, “Hydrotesting and mothballing composition and method of using combination products for multifunctional water treatment” (priority 2014, dated 2021).
# Tests used:
# [1] = Oxygen scavenging efficacy (real-time orbisphere oxygen sensor); settings: 500 ppm
# Experimental: Oxygen scavenging efficacy was evaluated using a real-time orbisphere oxygen sensor with data logging. The test equipment consisted of a stirrer plate and stirrer bar, a 1 liter test cell, circulation pump, flow chamber, oxygen sensor and data logger. Test work was performed using potable water taken from the mains water supply in The Woodlands, Tex. and then using filtered seawater taken from Galveston, Tex. Testing was performed at 4° C. and 25° C. by wrapping the test cell with a monoethylene glycol circulator chiller jacket. A carbon steel stirrer bar was added to the test cell to replicate turbulence that would be created upon pumping the hydrotest fluid using the metallurgy of a typical pipeline. A non-pulsing circulation pump was set to circulate the test fluid past the oxygen sensor at a rate of 10 mL·min^−1. The oxygen sensor was calibrated prior to every new test run. Each test was run for a duration of 60 minutes with a 10 minute stabilization period prior to the introduction of test chemical. Chemical was injected into the test cell by means of a needle and syringe through a rubber stopper to minimize any oxygen ingress during this stage of the test. Throughout the test, oxygen levels were measured once every minute and the data continuously logged.
# All tests of the new formulations (detailed in Table 1) were benchmarked against has 50% ADMAC (specifically […]), 30% ammonium bisulfite and 20% water, herein referenced as Formulation 3 and detailed in Table 1. Furthermore ammonium bisulfite was used as a benchmark and the activity matched up to 30% which is the concentration used in all the formulations. Therefore all testing had the same concentration of oxygen scavenging component with the only variable being the other components of the formulation.
# It should be noted that all testing was performed so that the concentration of oxygen scavenger was exactly the same in all tests so the only variables were the counter components in the formulations, this isolating the effects that combining components has upon the oxygen scavenging efficacy of the invented products. Therefore all formulations were added at 500 ppm. […] Furthermore, adding a dye into the formulation as well as the DDAC and DDABC, as is the case with Formulation 1, has no further negative effects on oxygen scavenging efficacy. It should be noted that scavenging in relatively warm seawater is not a very challenging environment to perform this testing in.
# [2] = tested on: Acid Producing Bacteria (APB); test: Most Probable Number (MPN) bacterial kill efficacy, APB; assay type: cell-based, mixed consortia isolated from seawater; settings: first MPN set; for APB per mL: formulation with ammonium bisulfide, 500 ppm active biocide
# Experimental: (§1) The Most Probably Number technique using a bacterial enumeration technique was performed, as described in NACE International Standard TMP 194-2004. Complex mixed consortia were isolated from seawater and subjected to the chemicals being tested. All chemicals were applied at the same active concentration. Surviving cells were assayed after exposure periods of 1, 7 and 28 days to the numbers compared with a control which received no treatments. The bottle tests were carried out using two mixed consortia—Sulfate Reducing Bacteria (SRB) and General Heterotrophic Bacteria (GHB) that also measured Acid Producing Bacteria (APB) enriched from seawater. Aliquots of the water (1 mL) were inoculated into SRB culture medium and GHB culture medium (Phenol Red Dextrose broth) respectively and sub-cultured twice. The cultures used in the tests were incubated at 30° C. for five days; these were then used to supplement seawater to achieve 10^3 to 10^4 SRB cells per mL. For the trial one control bottle and four test bottles were set up. The chemicals were added to the appropriate test bottles to give the final concentrations of each product as supplied. All chemicals were added so that 500 ppm of active biocide was present in each test. The control bottle contained seawater only with no added chemical.
# (§2) At each time point, (one, seven and twenty-eight days), a sample was removed from each test bottle and the control bottle and used to inoculate the MPN vials. Bacterial counts were performed using the triplicate Most Probable Number method (triplicate MPNs). The inoculated MPN vials were incubated at 30° C. for 7 days for GHB and APB and 28 days for SRB. Results have been reported as cells per mL. […]
# [3] = tested on: Sulfate Reducing Bacteria (SRB); test: Most Probable Number (MPN) bacterial kill efficacy, SRB; assay type: cell-based, mixed consortia isolated from seawater; settings: first MPN set; for SRB per mL: formulation with ammonium bisulfide, 500 ppm active biocide
# Experimental: as §1, §2
# [4] = tested on: General Heterotrophic Bacteria (GHB); test: Most Probable Number (MPN) bacterial kill efficacy, GHB; assay type: cell-based, mixed consortia isolated from seawater; settings: first MPN set; for GHB per mL: formulation with ammonium bisulfide, 500 ppm active biocide
# Experimental: as §1, §2
compound,measurement,setting,value
"N.O=S(O)O [ABS 30%, ammonium bisulfite]",Oxygen level (ppm O2),"[1]; fresh water, 25° C., time 0 minutes (stabilization before chemical injection)",8.314 ppm O2
same,Oxygen level (ppm O2),"[1]; fresh water, 25° C., time 2 minutes (stabilization before chemical injection)",8.346 ppm O2
same,Oxygen level (ppm O2),"[1]; fresh water, 25° C., time 4 minutes (stabilization before chemical injection)",8.310 ppm O2
same,Oxygen level (ppm O2),"[1]; fresh water, 25° C., time 6 minutes (stabilization before chemical injection)",8.265 ppm O2
same,Oxygen level (ppm O2),"[1]; fresh water, 25° C., time 8 minutes (stabilization before chemical injection)",8.345 ppm O2
same,Oxygen level (ppm O2),"[1]; fresh water, 25° C., time 10 minutes (end of 10 minute stabilization)",8.302 ppm O2
same,Oxygen level (ppm O2),"[1]; fresh water, 25° C., time 12 minutes",7.612 ppm O2
same,Oxygen level (ppm O2),"[1]; fresh water, 25° C., time 14 minutes",6.674 ppm O2
same,Oxygen level (ppm O2),"[1]; fresh water, 25° C., time 16 minutes",5.585 ppm O2
same,Oxygen level (ppm O2),"[1]; fresh water, 25° C., time 18 minutes",4.732 ppm O2
same,Oxygen level (ppm O2),"[1]; fresh water, 25° C., time 20 minutes",4.115 ppm O2
same,Oxygen level (ppm O2),"[1]; fresh water, 25° C., time 22 minutes",3.765 ppm O2
same,Oxygen level (ppm O2),"[1]; fresh water, 25° C., time 24 minutes",3.195 ppm O2
same,Oxygen level (ppm O2),"[1]; fresh water, 25° C., time 26 minutes",3.027 ppm O2
same,Oxygen level (ppm O2),"[1]; fresh water, 25° C., time 28 minutes",2.546 ppm O2
same,Oxygen level (ppm O2),"[1]; fresh water, 25° C., time 30 minutes",1.863 ppm O2
same,Oxygen level (ppm O2),"[1]; fresh water, 25° C., time 32 minutes",1.516 ppm O2
same,Oxygen level (ppm O2),"[1]; fresh water, 25° C., time 34 minutes",1.173 ppm O2
same,Oxygen level (ppm O2),"[1]; fresh water, 25° C., time 36 minutes",0.857 ppm O2
same,Oxygen level (ppm O2),"[1]; fresh water, 25° C., time 38 minutes",0.654 ppm O2
same,Oxygen level (ppm O2),"[1]; fresh water, 25° C., time 40 minutes",0.436 ppm O2
same,Oxygen level (ppm O2),"[1]; fresh water, 25° C., time 42 minutes",0.349 ppm O2
same,Oxygen level (ppm O2),"[1]; fresh water, 25° C., time 44 minutes",0.215 ppm O2
same,Oxygen level (ppm O2),"[1]; fresh water, 25° C., time 46 minutes",0.134 ppm O2
same,Oxygen level (ppm O2),"[1]; fresh water, 25° C., time 48 minutes",0.119 ppm O2
same,Oxygen level (ppm O2),"[1]; fresh water, 25° C., time 50 minutes",0.096 ppm O2
same,Oxygen level (ppm O2),"[1]; fresh water, 25° C., time 52 minutes",0.087 ppm O2
same,Oxygen level (ppm O2),"[1]; fresh water, 25° C., time 54 minutes",0.063 ppm O2
same,Oxygen level (ppm O2),"[1]; fresh water, 25° C., time 56 minutes",0.055 ppm O2
same,Oxygen level (ppm O2),"[1]; fresh water, 25° C., time 58 minutes",0.050 ppm O2
same,Oxygen level (ppm O2),"[1]; fresh water, 25° C., time 60 minutes",0.480 ppm O2
same,Oxygen level (ppm O2),"[1]; seawater, 4° C., time 0 minutes (stabilization before chemical injection)",7.554 ppm O2
same,Oxygen level (ppm O2),"[1]; seawater, 4° C., time 2 minutes (stabilization before chemical injection)",7.452 ppm O2
same,Oxygen level (ppm O2),"[1]; seawater, 4° C., time 4 minutes (stabilization before chemical injection)",7.357 ppm O2
same,Oxygen level (ppm O2),"[1]; seawater, 4° C., time 6 minutes (stabilization before chemical injection)",7.268 ppm O2
same,Oxygen level (ppm O2),"[1]; seawater, 4° C., time 8 minutes (stabilization before chemical injection)",7.121 ppm O2
same,Oxygen level (ppm O2),"[1]; seawater, 4° C., time 10 minutes (end of 10 minute stabilization)",6.997 ppm O2
same,Oxygen level (ppm O2),"[1]; seawater, 4° C., time 12 minutes",2.125 ppm O2
same,Oxygen level (ppm O2),"[1]; seawater, 4° C., time 14 minutes",0.454 ppm O2
same,Oxygen level (ppm O2),"[1]; seawater, 4° C., time 16 minutes",0.269 ppm O2
same,Oxygen level (ppm O2),"[1]; seawater, 4° C., time 18 minutes",0.064 ppm O2
same,Oxygen level (ppm O2),"[1]; seawater, 4° C., time 20 minutes",0.047 ppm O2
same,Oxygen level (ppm O2),"[1]; seawater, 4° C., time 22 minutes",0.029 ppm O2
same,Oxygen level (ppm O2),"[1]; seawater, 4° C., time 24 minutes",0.009 ppm O2
same,Oxygen level (ppm O2),"[1]; seawater, 4° C., time 26 minutes",0.003 ppm O2
same,Oxygen level (ppm O2),"[1]; seawater, 4° C., time 28 minutes",0.002 ppm O2
same,Oxygen level (ppm O2),"[1]; seawater, 25° C., time 0 minutes (stabilization before chemical injection)",7.112 ppm O2
same,Oxygen level (ppm O2),"[1]; seawater, 25° C., time 2 minutes (stabilization before chemical injection)",7.081 ppm O2
same,Oxygen level (ppm O2),"[1]; seawater, 25° C., time 4 minutes (stabilization before chemical injection)",7.029 ppm O2
same,Oxygen level (ppm O2),"[1]; seawater, 25° C., time 6 minutes (stabilization before chemical injection)",7.084 ppm O2
same,Oxygen level (ppm O2),"[1]; seawater, 25° C., time 8 minutes (stabilization before chemical injection)",7.066 ppm O2
same,Oxygen level (ppm O2),"[1]; seawater, 25° C., time 10 minutes (end of 10 minute stabilization)",7.061 ppm O2
same,Oxygen level (ppm O2),"[1]; seawater, 25° C., time 12 minutes",0.052 ppm O2
same,Oxygen level (ppm O2),"[1]; seawater, 25° C., time 14 minutes",0.013 ppm O2
same,Oxygen level (ppm O2),"[1]; seawater, 25° C., time 16 minutes",0.010 ppm O2
same,Oxygen level (ppm O2),"[1]; seawater, 25° C., time 18 minutes",0.009 ppm O2
same,Oxygen level (ppm O2),"[1]; seawater, 25° C., time 20 minutes",0.008 ppm O2
same,Oxygen level (ppm O2),"[1]; seawater, 25° C., time 22 minutes",0.007 ppm O2
same,Oxygen level (ppm O2),"[1]; seawater, 25° C., time 24 minutes",0.006 ppm O2
same,Oxygen level (ppm O2),"[1]; seawater, 25° C., time 26 minutes",0.005 ppm O2
same,Oxygen level (ppm O2),"[1]; seawater, 25° C., time 28 minutes",0.004 ppm O2
"CC1(C)C(=O)N(CO)C(=O)N1CO [DMDM hydantoin, 1,3-Bis(hydroxymethyl)-5,5-dimethylimidazoline-2,4-dione]",APB per mL,[2]; 24 h exposure,4.5E+02 cells per mL
same,APB per mL,[2]; 7 d exposure,2.5E+02 cells per mL
same,APB per mL,[2]; 28 d exposure,9.5E+04 cells per mL
same,log reduction of APB numbers,[2]; exposure time of 24 hours,no effect
same,SRB per mL,[3]; 24 h exposure,9.5E+04 cells per mL
same,SRB per mL,[3]; 7 d exposure,9.5E+02 cells per mL
same,SRB per mL,[3]; 28 d exposure,4.5E+06 cells per mL
same,log reduction of planktonic SRB,[3]; exposure time of 24 hours,no effect
same,GHB per mL,[4]; 24 h exposure,9.5E+03 cells per mL
same,GHB per mL,[4]; 7 d exposure,9.5E+05 cells per mL
same,GHB per mL,[4]; 28 d exposure,2.5E+05 cells per mL
same,log reduction of planktonic GHB,[4]; exposure time of 24 hours,1 log
